Values of other authors in patent US20110143366A1, “PROTEIN BIOMARKERS FOR IN VITRO TESTING OF DEVELOPMENTAL TOXICITY AND ENBRYOTOXICITY OF CHEMICAL SUBSTANCES” (PROTEOSYS AG, priority 2008, published 2011).

Tested on: Cardiomyocytes differentiated from murine embryonic stem cells (EST model)
Conditions: substances with known embryotoxic potency used in the EST model

Row | SMILES | Embryotoxicity class of the substance
1 | CC(C)(S)[C@@H](N)C(=O)O [D-penicillamine] | non-embryotoxic
2 | CC[C@H](C)C(=O)O[C@H]1C[C@@H](C)C=C2C=C[C@H](C)[C@H](CC[C@@H]3C[C@@H](O)CC(=O)O3)[C@H]21 [Lovastatin] | highly embryotoxic
3 | O=[N+]([O-])c1ccc(Oc2ccc(Cl)cc2Cl)cc1 [Nitrofen] | highly embryotoxic
4 | C[C@@H]1Cc2c(Cl)cc(C(=O)N[C@@H](Cc3ccccc3)C(=O)O)c(O)c2C(=O)O1 [Ochratoxin, Ochratoxin-A] | highly embryotoxic
5 | CN(C)CCOC(C)(c1ccccc1)c1ccccn1 (centres unmarked) [doxylamine] | non-embryotoxic
6 | CCN(CC)CCNC(=O)c1cc(Cl)c(N)cc1OC [metoclopramide] | non-embryotoxic
7 | CC[C@H](C)C(=O)O[C@H]1C[C@H](O)C=C2C=C[C@H](C)[C@H](CC[C@@H](O)C[C@@H](O)CC(=O)O)[C@H]21 [pravastatin] | moderately embryotoxic
8 | N#CCCN [β-aminoproprionitril] | non-embryotoxic
